From patent US10226457B2, “Systems and methods for treating an opioid-induced adverse pharmacodynamic response” (Purdue Pharma L.P., priority 2014, dated 2019)

Experiments:
male Sprague-Dawley rats [1] = experiment: Rat tail flick assay; conditions: for tail flick MED (acute pain): intensity 40, cutoff 20 seconds
Procedure: Morphine sulphate (1-10 mg/kg) was dissolved in 0.9% normal saline solution (NSS)(vehicle) and administered SC 1 hour prior to testing against vehicle. Data were analyzed by a two-way ANOVA using a Bonferroni post-hoc test, *P<0.05, ***P<0.001.
Morphine sulphate (1-10 mg/kg) was dissolved in 0.9% normal saline solution (NSS)(vehicle) and administered SC 1 hour prior to testing against vehicle. % MPE=Percent of Maximum Possible Effect. % MPE=(test latency-baseline)/(cutoff(20 s)-baseline)*100. Data were analyzed by a two-way ANOVA using a Bonferroni post-hoc test, *P<0.05, **P<0.01, ***P<0.001.
Morphine sulphate (10 mg/kg) was dissolved in 0.9% NSS (vehicle). The formulations were administered SC 1 hour prior to testing against vehicle. Data were analyzed by a two-way ANOVA using a Bonferroni multiple comparisons test, *P<0.05, ***P<0.001.
Morphine sulphate (10 mg/kg) was dissolved in 0.9% NSS (vehicle). The formulations were administered SC 1 hour prior to testing against vehicle. % MPE=Percent Maximum Possible Effect. % MPE=(test latency-baseline)/(cutoff(20 s)-baseline)*100. Data were analyzed by a two-way ANOVA using a Bonferroni multiple comparisons test, ***P<0.001.
The positive control, morphine sulfate in 0.9% NS was administered SC 1 hour prior to testing. Rats were assessed the day prior (BL) and then 1, 3 and 5 hours post-dosing. Tail Flick was set to 40 intensity and cutoff 20 seconds. Data were analyzed by a two-way ANOVA using a Bonferroni Multiple Comparisons Test, where *P<0.05,***P<0.001 and ****P<0.0001. Data are represented as the means+S.E.M of two combined studies.
Oxycodone hydrochloride (0.3-5 mg/kg) was dissolved in 0.9% normal saline solution (NSS)(vehicle) and administered SC 1 hour prior to testing against vehicle. Data were analyzed by a two-way ANOVA using a Bonferroni multiple comparisons test, ****P<0.001.
Oxycodone hydrochloride (0.3-5 mg/kg) was dissolved in 0.9% normal saline solution (NSS)(vehicle) and administered SC 1 hour prior to testing against vehicle. % MPE=Percent Maximum Possible Effect. % MPE=(test latency-baseline)/(cutoff(20 s)-baseline)*100. Data were analyzed by a two-way ANOVA using a Bonferroni multiple comparisons test, ****P<0.001.
Oxycodone HCl and vehicle were administered SC 1 hour prior to testing. Rats were assessed one day prior (BL) and then 1, 3 and 5 hours post-oxycodone administration. The tail flick was set to an intensity of 40 and the cutoff was 20 seconds. Oxycodone was dissolved in 0.9% (vehicle). […] Data were analyzed by a two-way ANOVA followed by the Bonferroni Multiple Comparisons Test where, *P<0.05 and ****P<0.001.
Oxycodone HCl was administered PO 1 hour prior to testing, while morphine sulfate, the positive control, was administered SC 1 Hour prior to testing. Behavior was assessed the day prior (BL) to dosing, and then 1, 3, 5 and 24 hours post-compound administration. The tail flick was set to an intensity of 40 and 20 seconds was used as the cutoff. Oxycodone was dissolved in water (vehicle), while morphine was dissolved in 0.9% NS. Data were analyzed by a two-way ANOVA using a Bonferroni Multiple Comparisons Test, where *P<0.05, **P<0.01, ***P<0.001 and * * * *P<0.0001.
Rats were assessed for tail flick latency the day prior to dosing, then 1.5, 3 and 5 hours post-morphine administration. Data were analyzed by a two-way ANOVA using the Bonferroni Multiple Comparisons Test, where ****P<0.0001 compared to vehicle+vehicle. Data are represented as the means+S.E.M.
Rats were assessed for thermal latency 1.5, 3 and 5 hours post-morphine administration. % MPE=Percent Maximum Possible Effect. % MPE=(test latency-baseline)/(cutoff(20 s)-baseline)*100. Data were analyzed by a two-way ANOVA using a Bonferroni multiple comparisons test for post-hoc analysis where *P<0.05 and ****P<0.001. Data are represented as the means+SEM.
Rats were tested 1 hour after oxycodone injection.

male Sprague-Dawley rats [2] = experiment: Rat hot plate assay; conditions: for hot plate MED (acute pain): 52° C., cutoff 30 seconds
Procedure: Morphine sulphate (1-10 mg/kg) was dissolved in 0.9% normal saline solution (NSS)(vehicle) and administered SC 1 hour prior to testing against vehicle. Data were analyzed by a two-way ANOVA using a Bonferroni Multiple Comparison Test,***P<0.001.
Morphine sulphate (1-10 mg/kg) was dissolved in 0.9% normal saline solution (NSS)(vehicle) and administered SC 1 hour prior to testing against vehicle. % MPE=Percent Maximum Possible Effect. % MPE=(test latency-baseline)/(cutoff-baseline). Data was analyzed using a Bonferroni Multiple Comparison Test,***P<0.001.
Morphine sulphate (10 mg/kg), the positive control, was dissolved in 0.9% NSS (vehicle). The formulations were administered SC 1 hour prior to testing against vehicle. Data were analyzed by a two-way ANOVA using a Bonferroni multiple comparisons test, where *P<0.05 and ***P<0.001. Data are represented as the means+S.E.M.
Morphine sulphate (10 mg/kg) was dissolved in 0.9% NSS (vehicle). The formulations were administered SC 1 hour prior to testing against vehicle. % MPE=Percent Maximum Possible Effect. % MPE=(test latency-baseline)/(cutoff (30 s)-baseline). Data were analyzed by a two-way ANOVA using Bonferroni Multiple Comparisons test for post-hoc analysis, where *P<0.05 and ***P<0.001. Data are represented as the means+SEM.
The positive control, morphine sulfate in 0.9% NS, was administered SC 1 hour prior to testing. Rats were assessed one day prior (BL) and then 1, 3 and 5 hours post-dosing. Hot Plate was set to 52° C. and cutoff was 30 seconds. Data were analyzed by a two-way ANOVA using a Bonferroni Multiple Comparisons Test, where *P<0.05, ***P<0.001 and ****P<0.0001 versus vehicle. Data are represented as the means+S.E.M from two combined studies.
Oxycodone hydrochloride (0.3-5 mg/kg) was dissolved in 0.9% normal saline solution (NSS)(vehicle) and administered SC 1 hour prior to testing against vehicle. Hot plate was set to 52° C. and cutoff was 30 seconds. Data were analyzed by a two-way ANOVA using a Bonferroni multiple comparisons test, where ****P<0.0001. Data are represented as the means+S.E.M.
Compound was administered SC 1 hour prior to testing. Oxycodone hydrochloride (0.3-5 mg/kg) was dissolved in 0.9% normal saline solution (NSS)(vehicle) and administered SC 1 hour prior to testing against vehicle. Hot plate was set to 52° C. and cutoff was 30 seconds. % MPE=. Percent Maximum Possible Effect. % MPE=(test latency-baseline)/(cutoff (30 s)-baseline). Data were analyzed by a two-way ANOVA using Bonferroni Multiple Comparisons test for post-hoc analysis, ****P<0.000. Data are represented as the means+SEM.
Oxycodone HCl was administered SC 1 hour prior to testing. Thermal latency was assessed the day prior (BL) and then 1, 3 and 5 hours post-oxycodone dosing. The hotplate was set to 52° C. and the cutoff was 30 seconds. Oxycodone was dissolved in 0.9% NS (vehicle). […] Data were analyzed by a two-way ANOVA using the Bonferroni Multiple Comparisons test for post-hoc analysis where, ***P<0.001. Data are represented as the means+SEM.
Oxycodone HCl was administered PO 1 hour prior to testing, while morphine sulfate, the positive control, was administered SC 1 hour prior to testing. Behavior was assessed the day prior (BL) and then 1, 3, 5 and 24 hours post-compound administration. The hot plate was set to 52° C. and the cutoff was 30 seconds. Oxycodone was dissolved in water (vehicle), while morphine sulfate was dissolved in 0.9% NS. Data were analyzed by a two-way ANOVA using a Bonferroni Multiple Comparisons Test, where ****P<0.0001.
Rats were assessed for thermal latency the day prior to dosing, then 1.5, 3 and 5 hours post-morphine administration. Data were analyzed by a two-way ANOVA using the Bonferroni Multiple Comparisons Test, where ****P<0.0001 compared to vehicle+vehicle. Data are represented as the means+S.E.M.

male Sprague-Dawley rats [3] = experiment: Stomach weight (gastric emptying) after charcoal meal; type: in vivo, rat; conditions: morphine sulfate 1-10 mg/kg SC, 0.5 hour before charcoal meal; vs vehicle
Procedure: Morphine sulfate (1-10 mg/kg) or 0.9% normal saline (vehicle) was administered SC to the test subjects. 0.5 hour later, a charcoal meal (1 ml/100 grams) was administered PO to the test subjects. One hour after the charcoal meal, the test subjects were euthanized by CO2 and the stomachs were removed and weighed. Data were analyzed using a one-way ANOVA followed by the Dunnett's Multiple Comparisons test where *P<0.05, **P<0.01 and ***P<0.001. […] This effect was dose dependent with a greater magnitude of effect observed with increasing dose.

male Sprague-Dawley rats [4] = experiment: Charcoal meal GI transit, opioid alone; conditions: for GI transit (% of the small intestine travelled by a charcoal meal): vs vehicle
Procedure: 0.5 hour later, a charcoal meal (1 ml/100 grams) was orally administered (PO) to the test subjects.
One hour after the charcoal meal, the test subjects were euthanized by CO2 and the gastrointestinal tract was removed from the stomach to the cecum. The length of the small intestine and the distance (cm) to the leading edge of the charcoal were recorded. Data were analyzed using a one-way ANOVA followed by the Dunnett's Multiple Comparisons test where *P<0.05, **P<0.01 and***P<0.001.
The length of the small intestine and the distance (cm) to the leading edge of the charcoal were recorded. Data were analyzed using a one-way ANOVA followed by Bonferroni's Multiple Comparisons Test where *P<0.05, **P<0.01 and ****P<0.001 vs. vehicle. Data are represented as the means+S.E.M.
One hour after charcoal, all rats were euthanized by CO2 and the GI tract was removed from the stomach to the cecum. The length of the small intestine and the distance (cm) to the leading edge of charcoal was recorded. Data were analyzed using a one-way ANOVA with Bonferonni's Post-Test where ****P<0.0001 vs. vehicle. Data are represented as the means+S.E.M.
One hour later, the rats were euthanized by CO2 and the gastrointestinal tract was removed from the stomach to the cecum. The length of the small intestine and the distance (cm) to the leading edge of charcoal were recorded. Data were analyzed using a one-way ANOVA followed by the Dunnett's Multiple Comparisons test where ***P<0.001. Data are represented as the mean+S.E.M.
Rats were dosed with Oxycodone HCl/Oxy or vehicle (water) PO once daily for 5 days (chronic). Additional groups were dosed only once on day 5 (acute). […] One hour after charcoal, all rats were euthanized by CO2 and the GI tract was removed from the stomach to the cecum. The length of the small intestine and the distance (cm) to the leading edge of charcoal was recorded. Data were analyzed using a one-way ANOVA with Bonferonni's Multiple Comparison Test where * P<0.05, ****P<0.0001 vs. vehicle (chronic), ### vs. oxycodone (acute). Data are represented as the means+S.E.M.

[5] = morphine sulphate 1-10 mg/kg SC 1 hour prior to testing
[6] = oxycodone hydrochloride 0.3-5 mg/kg SC 1 hour prior to testing

Row | SMILES | tail flick % MPE (male Sprague-Dawley rats [1]; [5]) | tail flick latency to nocifensive response (male Sprague-Dawley rats [1]; [5]) | hot plate % MPE (male Sprague-Dawley rats [2]; [5]) | hot plate latency to nocifensive response (male Sprague-Dawley rats [2]; [5]) | stomach weight (gastric emptying) (male Sprague-Dawley rats [3]) | GI transit (% of the small intestine travelled by a charcoal meal) (male Sprague-Dawley rats [4]; morphine sulfate 1-10 mg/kg SC, 0.5 hour before charcoal meal) | rats found dead (male Sprague-Dawley rats [1]; oxycodone HCl 10 mg/kg SC dosing group, at the 3 hr time point) | tail flick MED (acute pain) (male Sprague-Dawley rats [1]; oxycodone HCl PO) | tail flick MED (acute pain) (male Sprague-Dawley rats [1]; oxycodone HCl SC) | tail flick % MPE (male Sprague-Dawley rats [1]; [6]) | tail flick latency to nocifensive response (male Sprague-Dawley rats [1]; [6]) | rats found dead (male Sprague-Dawley rats [2]; oxycodone HCl 10 mg/kg SC, at the 3 hr time point) | hot plate MED (acute pain) (male Sprague-Dawley rats [2]; oxycodone HCl PO) | hot plate MED (acute pain) (male Sprague-Dawley rats [2]; oxycodone HCl SC) | hot plate % MPE (male Sprague-Dawley rats [2]; [6]) | hot plate latency to nocifensive response (male Sprague-Dawley rats [2]; [6]) | tolerance to inhibition of GI transit on repeated dosing (male Sprague-Dawley rats [4]; oxycodone HCl PO once daily for 5 days (chronic) vs single dose on day 5 (acute)) | GI transit (% of the small intestine travelled by a charcoal meal) (male Sprague-Dawley rats [4]; oxycodone hydrochloride 0.3-5 mg/kg SC, 1 hour before charcoal meal)
1 | CN1CC[C@]23c4c5ccc(O)c4O[C@H]2[C@@H](O)C=C[C@H]3[C@H]1C5.O=S(=O)(O)O [morphine, morphine sulphate] | increased % of the maximal possible effect | increased latency to nocifensive response | increased % of the maximal possible effect | increased latency to nocifensive response | increased stomach weight due to delayed gastric emptying | decreases gastrointestinal transit |  |  |  |  |  |  |  |  |  |  |  | 
2 | COc1ccc2c3c1O[C@H]1C(=O)CC[C@@]4(O)[C@@H](C2)N(C)CC[C@]314.Cl [oxycodone, oxycodone hydrochloride] |  |  |  |  |  |  | 4 out of 10 | 10 mg/kg | 3 mg/kg | increased % of the maximal possible effect | increased latency to nocifensive response | 4 out of 10 | 10 mg/kg | 3 mg/kg | increased % of the maximal possible effect | increased latency to nocifensive response | produces some tolerances to its acute effect on the inhibition of GI transit | decreases gastrointestinal transit
